{"source": "patent US10390521B2", "about": "“Parkinsons disease model and methods” (Boston Medical Center Corporation, priority 2013, dated 2019)", "key": {"PLA2g6": {"tested_on": "PLA2g6", "assay": "PLA2g6 catalytic activity in homogenates of brain or MEFs", "assay_type": "biochemical, mouse", "settings": "no differences between KO^Ex2 and WT", "experimental": "The activity of PLA2g6 (FIG. 14) was determined using modified PLA2 assay kit (Cayman, USA), as previously described (56, 63). Briefly, after each experimental treatment, MEFs were homogenized using a cold lysis buffer (10 mM Tris-HCl, pH 7.0, 300 mM sucrose, 0.5% Triton X-100). To identify specific activity of Ca^2+-independent PLA2g6, the assay buffers were modified to contain no Ca^2+, and phospholipase activity was assayed by incubating the samples with the substrate, 1-hexadecyl-2-arachidonoylthio-2-deoxy-sn-glycero-3-phosphorylcholine for 1 h at room temperature in a modified Ca^2+-free assay buffer (10 mM HEPES, pH 7.4, 300 mM NaCl, 60% glycerol, 8 mM Triton X-100, 4 mM EGTA, and 2 mg/ml bovine serum albumin). The generated free thiols were visualized by the addition of DTNB (5,5′-dithiobis(2-[…])) for 5 min, and the absorbance was determined at 405 nm using a standard microplate reader. In calculations of specific PLA2g6 activity a value of 10 mM^−1 was used as extinction coefficient for DTNB at 405 nm. Summary data present average (±SEM) from 3 independent experiments for each condition."}, "KO^Ex2 mice": {"tested_on": "KO^Ex2 mice", "assay": "L-DOPA challenge, beam balance test", "assay_type": "in vivo, mouse", "experimental": "The balance beam test (FIG. 10d) was performed using standard approach (55). […] KO^ex2 and WT males from 8 to 24 month of age were tested. Each mouse was placed on a beam for 2 minutes, and its movement was recorded by video camera. The total travel distance, the number of missteps (paw faults, or slips) during travel were analyzed for each mouse, and data summarized for each group as mean±SEM; the numbers of animals used for each time point is identified on the graphs. L-DOPA challenge test (FIG. 10e) was performed on KO^ex2 and WT littermates mice at 12, 16 and 24 months of age. Control beam balance test was performed in the morning a day before L-DOPA challenge. In the morning of the following day, all mice received a single dose of L-3,4-dihydroxyphenylalanine (L-DOPA) via peritoneal injection. Three different doses (5, 10 and 25 mg/kg, Sigma) were tested on the same groups of animals in separate experiments performed with 2-3 days intervals. During each test 20 minutes before L-DOPA administration, mice were given 6 mg/kg of Benserazide (Sigma) to inhibit peripheral DOPA decarboxylase. Beam balance test was done 1 h after L-DOPA injection, as described above. Video-recorded data for each mouse were analyzed later, and summarized for each group as mean±SEM; the numbers of animals used for these studies is identified on the graphs."}, "[1]": {"tested_on": "store-operated Ca^2+ entry (SOCE)", "assay": "Ca^2+ imaging, store-operated Ca^2+ entry in MEFs", "assay_type": "cell-based, mouse", "settings": "MEFs from WT mice", "experimental": "(§1) MEFs were cultured in glass bottom dishes coated with fibronectin (2.5 μg/cm^2, Sigma, St. Louis, Mo., USA) for 24-48 hours. Intracellular Ca^2+ measurements were done similar to published earlier (57). Briefly, the cells were loaded with fura-2/AM (5 μM) (Invitrogen), and cytosolic Ca^2+ (measured as F340/F380 ratio) was recorded simultaneously in 10-20 individual cells using a dual-excitation fluorescence imaging system (Intracellular Imaging, USA): representative traces show an average (±SEM) for 10-20 cells recorded simultaneously. Ca^2+ changes were calculated as Δ Ratio(F340/F380), which is the difference between the basal and peak values of Ca^2+ responses.\n(§2) The following treatments were used in Ca^2+ studies (FIG. 14): TPEN (N,N,N′,N′-Tetrakis(2-pyridylmethyl)ethylenediamine, Sigma, USA) was applied (400 μM) directly to the cells during recording, 3 min before 2 mM Ca^2+ addition; (S)-BEL ((S)-bromoenol lactone, Cayman, USA) was applied (50 μM for 20 min in serum-free medium at 37° C.) to the cells after their loading with fura-2/AM, and was washed away before the start of experiment; EGTA (2.5 mM) was added to 2 mM Ca^2+-containing bath solution right before ionomycin (IM, 1 μM) application."}, "[2]": {"tested_on": "intracellular Ca^2+ stores", "assay": "Ca^2+ imaging, ionomycin-induced Ca^2+ release from intracellular stores in MEFs", "assay_type": "cell-based, mouse", "settings": "MEFs from KO^Ex2 mice compared to WT; IM 1 μM, extracellular EGTA", "experimental": "as §1, §2"}}}
{"compound": "O=C(O)CN(CCOCCOCCN(CC(=O)O)CC(=O)O)CC(=O)O", "note": "[EGTA]", "values": [{"measurement": "effect on PLA2g6 catalytic activity", "setting": "PLA2g6", "value": "activation"}]}
{"compound": "N[C@@H](Cc1ccc(O)c(O)c1)C(=O)O", "note": "[L-DOPA, L-3,4-dihydroxyphenylalanine]", "values": [{"measurement": "number of missteps in beam balance test", "setting": "KO^Ex2 mice; KO^Ex2 mice at 12, 16 and 24 months, L-DOPA 5-25 mg/kg, dose and age-dependent manner", "value": "significantly reduced"}, {"measurement": "motor performance (PD-like motor dysfunction)", "setting": "KO^Ex2 mice; KO^Ex2 mice, L-DOPA 5-25 mg/kg peritoneal injection, Benserazide 6 mg/kg 20 min before, test 1 h after injection", "value": "significantly improved"}]}
{"compound": "O=C1O/C(=C/Br)CC[C@H]1c1cccc2ccccc12", "note": "[S-BEL, (S)-bromoenol lactone]", "values": [{"measurement": "effect on PLA2g6 catalytic activity", "setting": "PLA2g6", "value": "inhibition"}, {"measurement": "effect on TPEN-induced Ca^2+ entry", "setting": "[1]; S-BEL 50 μM for 20 min pretreatment", "value": "S-BEL-sensitive"}]}
{"compound": "c1ccc(CN(CCN(Cc2ccccn2)Cc2ccccn2)Cc2ccccn2)nc1", "note": "[TPEN, N,N,N′,N′-Tetrakis(2-pyridylmethyl)ethylenediamine]", "values": [{"measurement": "store-operated Ca^2+ entry", "setting": "[1]; TPEN 400 μM", "value": "activated"}]}
{"compound": "C[C@H](CCC(=O)O)C[C@H](C)C[C@H](C)C(=O)/C=C(\\O)[C@H](C)C[C@H](C)C/C=C/[C@@H](C)[C@@H](O)[C@@H](C)[C@@H](O)C[C@@H]1CC[C@@](C)([C@H]2CC[C@@](C)([C@@H](C)O)O2)O1", "note": "[ionomycin]", "values": [{"measurement": "decrease in the peak of Ca^2+ release caused by ionomycin", "setting": "[2]", "value": 60, "unit": "%"}]}
